In US10385080B2, “STAT6 inhibitors” (Board of Regents, The University of Texas System, priority 2013, dated 2019):
Entries after “also recorded” stand apart in the source; their conditions may differ.

Legend:
Stat5 = assay: Selectivity: Stat5 phosphorylation in EGF-stimulated MDA-MB-468 cells; format: cell-based; details: serum starved MDA-MB-468 cells, 2 hr
Method: (§1) Compounds were screened at 5 μM for their ability to inhibit IL-4 stimulated phosphorylation of STAT6 in Beas-2B immortalized human airway cells. Cells were treated with prodrug for 2 hr and then stimulated with IL-4. After 30 min cells were lysed and pSTAT6 and total STAT6 were measured with western blots (FIG. 7). Without being bound by theory, the inhibition observed is consistent with compounds entering cells, being stripped of the POM groups, binding to the SH2 domain of STAT6, blocking binding to IL-4Rα and preventing phosphorylation of Tyr641. […] Compounds resulting in <10% residual phosphorylation were taken on to MTS cytotoxicity assays and dose response assays. (FIG. 8). The cyclic aromatic amides PM-63I, PM-80I, PM-81I, and PM-86I were very potent with IC50 values from 50-500 nM. […] With the exception of PM-43I, concentrations that inhibit STAT6 phosphorylation are 20-100 fold lower than those resulting in toxicity. STAT6 inhibitors were assayed for their ability to inhibit the phosphorylation of STAT 1, STAT 3, STAT 5, Akt, and FAK, all processes that depend on SH2 domain-phosphotyrosine interactions (Mandal, P. K. et al. 2011). Serum starved MDA-MB-468 breast cancer cells were treated with STAT6 inhibitors for 2 hr and then were stimulated with EGF (See FIGS. 9A and 9B).

allergic airway disease = assay: Allergic lung disease reversal model (A. niger spores, treatment of established disease); format: in vivo, mice
Method: FIG. 17A, Mice are treated intranasally with 400,000 Aspergillus niger conidia every other day. After two weeks A. niger conidia are administered with either DLPC or DLPC/PM-43I. Airway hyperresponsiveness is measured at week 2, 3, and 4. FIG. 17B, Airway hyperrepsonsiveness induced by acetylcholine is revered by treatment with PM-43I.
In separate experiments wild type C57BL/6 mice were challenged with the spores of A. niger for two weeks after which the inventors began to give PM-242H intranasally at 50 micrograms per dose at the time of continued fungal challenge for an additional two weeks (FIG. 13A).
(§2) Mice were challenged intranasally with a clinical isolate of 4×10^5 A. niger conidia every two days for a total of 8 challenges and treated with 50 μg of the indicated β-agonist, liposome vehicle (DLPC) and/or PM-242H (5 or 50 μg) intranasally as indicated and the allergic airway disease phenotype was determined according to previously described methods (Porter, P. et al. 2009).
(§3) Allergic airway disease was assessed as previously described (Porter, P. et al. 2009). Changes in respiratory system resistance (RRS) in response to intravenous acetylcholine challenge, bronchoalveolar lavage (BAL) fluid differential counts, and analysis of lung IL-4, IL-17A and IFN-γ producing cells by enzyme linked immunocell spot assay (ELISpot) were performed as previously described (Lee, S. H. et al. 2003; Polikepahad, S. et al. 2010).
Lungs were perfused of blood by cannulating the pulmonary artery and injecting ice cold PBS until lavage returning via the left atrium was clear. Lungs were then inflated via the trachea with 10% formalin at 25 cm water pressure and the tracheas were tied off prior to removal of the cardiopulmonary unit en bloc submerging in 10% formalin overnight. Fixed lungs were then divided into individual lobes that were then halved and embedded in paraffin. Lung sections were cut at 5 microns and stained with the periodic acid-Schiff (PAS) kit (395B; Sigma-Aldrich, St. Louis, Mo.).

[1] = tested on: asthma-related parameters; assay: Dose effect on asthma-related parameters in fungus-challenged mice; format: in vivo; details: fungus-challenged mice
Method: (§4) The issue of toxicity was addressed with the newer synthetic STAT6 peptidomimetic agents 86i and 43i in two ways. First, the inventors determined the effect of each inhibitor on asthma-related parameters in fungus-challenged mice. […] Second, the weights of mice were measured during challenge with the different doses of both STAT6 inhibitors.
as §2, §3

[2] = Toxicity: weights of mice during challenge with different doses; format: in vivo; details: highest dose of 50 micrograms
Method: as §4

STAT6 [3] = target: T1, STAT6 (Homo sapiens, UniProt P42226); assay: Inhibition of IL-4 (and IL-13) stimulated phosphorylation of STAT6 in Beas-2B cells, western blot; format: cell-based; design: endogenous in cells; host or cells: Beas-2B immortalized human airway cells; details: dose response
T1 sequence (P42226 1-847): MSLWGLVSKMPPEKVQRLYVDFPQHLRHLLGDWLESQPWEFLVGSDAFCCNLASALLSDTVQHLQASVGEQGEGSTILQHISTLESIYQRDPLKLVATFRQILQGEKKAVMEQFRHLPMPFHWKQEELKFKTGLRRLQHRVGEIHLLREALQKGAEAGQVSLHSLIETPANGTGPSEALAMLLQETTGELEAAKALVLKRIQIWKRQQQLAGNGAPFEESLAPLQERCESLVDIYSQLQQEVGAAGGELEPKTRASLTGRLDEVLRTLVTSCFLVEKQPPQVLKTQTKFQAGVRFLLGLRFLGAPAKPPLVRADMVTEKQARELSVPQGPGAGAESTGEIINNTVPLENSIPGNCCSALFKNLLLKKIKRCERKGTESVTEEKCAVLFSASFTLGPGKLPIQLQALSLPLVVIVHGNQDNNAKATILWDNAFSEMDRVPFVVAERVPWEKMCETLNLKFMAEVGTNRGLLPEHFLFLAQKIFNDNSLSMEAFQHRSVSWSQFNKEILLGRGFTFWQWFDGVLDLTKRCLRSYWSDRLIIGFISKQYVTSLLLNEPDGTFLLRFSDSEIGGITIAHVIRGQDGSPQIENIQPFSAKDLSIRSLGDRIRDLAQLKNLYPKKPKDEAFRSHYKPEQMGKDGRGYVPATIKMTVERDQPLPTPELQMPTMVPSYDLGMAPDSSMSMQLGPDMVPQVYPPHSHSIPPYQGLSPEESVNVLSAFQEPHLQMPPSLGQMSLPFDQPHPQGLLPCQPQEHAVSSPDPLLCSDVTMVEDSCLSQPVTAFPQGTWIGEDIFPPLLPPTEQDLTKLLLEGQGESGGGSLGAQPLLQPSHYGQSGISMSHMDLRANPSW
Method: Compound PM-241H inhibited the phosphorylation of Tyr641 of STAT6 in Beas-2B cells stimulated with IL-4 and IL-13.
as §1
(§5) Cells or lungs were isolated and lysed in RIPA buffer (9806S; Cell Signaling, Danvers, Mass.), protein was quantified using BCA Protein Assay Reagent (23227; Thermo Fisher Scientific, Rockford, Ill.) and denatured in Laemmli sample buffer (161-0737; Bio-Rad, Hercules, Calif.) according to manufacturer's protocol. Proteins were separated on SDS-Page gels were hand-poured using a standard electrophoresis unit (Bio-Rad, Hecules, Calif.) and transferred to a membrane using iBlot Gel Transfer Device (IB 1001; Invitrogen, Grand Island, N.Y.). Membranes were blocked in 2% FBS PBST and probed for c-Src, p-c-Src, pErk1/2, Erk1/2, p STAT6, STAT6, pSTAT3, STAT3, pSTAT5, STAT5, Shp-1, and β-actin. Signal was detected with a ChemiDoc XRS+ system (BioRad; Hercules, Calif.).

Th1, Th2, Th17 cells = assay: Th cell development: ovalbumin restimulation ELISpot of splenocytes from ovalbumin/alum immunized mice; format: in vivo
Method: The ability of PM-242H to inhibit the development of major T helper effector subsets (Th1, Th2, Th17 cells) at the time of allergen exposure was tested. For these experiments, mice were immunized with chicken egg ovalbumin precipitated in alum over two weeks and then challenged intranasally with the spores of the fungus Aspergillus niger (AN) together with alum-free ovalbumin. The inventors prepared single cell suspensions of splenocytes from these same mice and stimulated the T cells in these preparations with ovalbumin to determine the precise number of antigen-specific Th1, Th2 and Th17 cells that developed. […] In summary, treatment of mice with PM-242H suppressed the development of Th2 and Th17, but not Th1 cells. These findings are entirely consistent with the known properties of STAT6, but in addition indicate that STAT6 may be involved with the production of Th17 cells.
(§6) Mice were sensitized to ovalbumin precipitated in alum as described in FIG. 3 (Corry, D. B. et al. 1996). In brief, mice were vaccinated intraperitoneally weekly with ovalbumin/alum together with PM-242H (50 or 250 μg) or liposome vehicle (DLPC) for 2 consecutive weeks and allowed to rest for 1 week. Mice were then intranasally challenged with ovalbumin (1 mg/mL in PBS; A5503, Sigma-Aldrich) and 4×10^5A. niger conidia for 5 consecutive days after which the allergic airway disease phenotype was assessed. Randomization was not used to assign mice to specific treatment groups. Investigators were blind as to mouse genotype and treatment during data collection.
Splenocytes from the indicated challenge groups of naïve and sensitized mice were assessed for antigen-specific recall cytokine responses by ELISpot. In brief, spleens were removed post mortem, de-aggregated by pressing through 40 μm nylon mesh and the red blood cells were removed from resulting cell suspension by hypotonic lysis. The splenocytes were then washed twice and cultured in flat-bottom wells of 96-well microtiter plates that were pre-coated with capture antibodies to IL-4, interferon gamma (IFN-γ) and IL-17A. Splenocytes were added in duplicate cultures of 0.5×10^6 cells/well that were then diluted serially two-fold to 0.015×10^6 cells/well. Cells were cultured in the presence of media or whole ovalbumin (1 mg/mL) overnight and plates were developed as previously described (Kheradmand, F. et al. 2002).

allergic lung disease = assay: Allergic lung disease induction model (ovalbumin/alum immunization, ovalbumin and A. niger challenge); format: in vivo, mice
Method: The same model as described in part E was used to determine the effect of PH-242H on the induction of allergic lung disease. Mice that were immunized with ovalbumin and challenged intranasally with ovalbumin and A. niger spores developed AHR as determined by a shift to the left of the acetylcholine (Ach) dose response curve as compared to PBS challenged animals. Enzyme linked immunocell spot (ELISpot) assays were then performed on whole lung homogenates, assaying for IL-4, gamma interferon (IFN-γ) and IL-17A-secreting cells.
as §6, §3

STAT6 [4] = assay: STAT6 phosphorylation in vitro and in vivo (summary statement)
Excerpt: The synthesized PM-242H compound was advanced to in vivo studies. PM-242H was formulated as simple dilauroylphosphatidyl-choline liposomes and applied by intranasal administration. […] These findings with PM-242H in vivo and in vitro are entirely consistent with and explained by its ability to inhibit selectively STAT6.
as §5

[5] = A. niger conidia, DLPC/PM-43I after two weeks
[6] = splenocytes restimulated with ovalbumin
[7] = ELISpot on whole lung homogenates
[8] = intranasal 50 micrograms per dose during established disease

CC(=CC(=O)NC1CCCCN(CC(=O)N(C)c2ccccc2)C1=O)c1ccc(C(F)(F)P(=O)(OCOC(=O)C(C)(C)C)OCOC(=O)C(C)(C)C)cc1 (stereo not shown) [PM-43I]
cross reactivity with Stat5 (Stat5): significant cross reactivity | established allergic airway disease (allergic airway disease; A. niger conidia every other day, DLPC/PM-43I after two weeks): reverses established allergic airway disease | immune cell recruitment (allergic airway disease; [5]): does not significantly affect | lung immune response to A. niger infection (allergic airway disease; [5]): does in inhibit | airway hyperresponsiveness induced by acetylcholine (allergic airway disease; A. niger conidia, DLPC/PM-43I after two weeks, weeks 2, 3, 4): revered | maximally effective dose [1]: 0.5 micrograms | weight gain [2]: reduction in weight gain | IC50 (STAT6 [3]): 1 to 2.5 µM

CC(C)(C)C(=O)OCOP(=O)(OCOC(=O)C(C)(C)C)C(F)(F)c1ccc(/C=C/C(=O)NC(C(=O)N2CCCC2C(=O)N(c2ccccc2)c2ccc(-c3ccccc3)cc2)C(C)(C)C)cc1 (stereo not shown) [PM-242H]
effect on Th cells (Th1, Th2, Th17 cells; FIGS. 11A-H legend): inhibits Th cells | Th1 (IFN-γ)-secreting cells (Th1, Th2, Th17 cells; [6]): unaffected | development of Th2 (IL-4-producing) T cells (Th1, Th2, Th17 cells; [6]): failed to develop | development of Th17 (IL-17A-producing) T cells (Th1, Th2, Th17 cells; [6]): failed to develop | IL-17A-secreting cells in lungs (allergic lung disease; [7]): significantly suppressed | ratio between IL-4 and IFN-γ-secreting cells in lungs (allergic lung disease; [7]): significantly suppressed | development of allergic lung disease (allergic lung disease; FIG. 12 legend): blocks the development of allergic lung disease | airway hyperresponsiveness (allergic airway disease; C57BL/6 mice, intranasal 50 micrograms per dose during established disease): abrogation of airway hyperresponsiveness; also recorded: promotes recovery from airway hyperresponsiveness | mucus production (allergic airway disease; FIGS. 13A-F legend): inhibition of mucus production | goblet cell metaplasia (periodic acid-Schiff staining) (allergic airway disease; [8]): reduction in goblet cell metaplasia | lung and airway inflammation (allergic airway disease; [8]): did not, however, attenuate | number of airway eosinophils (allergic airway disease; [8]): increased | number of lung IL-17A-secreting cells (allergic airway disease; [8]): increased | STAT6 phosphorylation both in vitro and in vivo (STAT6 [4]): inhibit
